Entries after “also recorded” stand apart in the source; their conditions may differ. Where two headings read alike, the source gives them in different places.

Broadly, the IC50 is the point on the concentration scale where inhibition reaches its midpoint.

Data set [1] in a line: High throughput Caco-2 permeability. The data set is classed as in vitro ADME. As to conditions: human, 10 μmol/l, 2 h, 37° C. The procedure:
High throughput Caco-2 permeability was performed in the TranswellR 0.4 μm polycarbonate membrane 96-well system with modified methods. Caco-2 cells were maintained at 37° C. in a humidified incubator with an atmosphere of 5% CO2. The cells were cultured in 75 cm^2 flasks with Dulbecco's Modified Eagle's Medium (DMEM) containing 10% (v/v) FBS, 1% (v/v) non-essential amino acids (NEAA), 100 units/ml of penicillin, and 100 μg/ml of streptomycin. The Caco-2 cells were seeded onto inserts at a density of 2×10^4 cells/insert separately. The medium in the wells was exchanged each other day, and the trans epithelial electrical resistance (TEER) value was measured using an epithelial voltohm meter (Millipore, Billerica, Massachusetts). […] For transport experiments, each cultured monolayer on the 96-well plate was washed twice with a transport buffer (HBSS containing 25 mM HEPES, pH 7.4). The permeability assay was initiated by the addition of each compound solution (10 μmol/l) into inserts (apical side, A) or receivers (basolateral side, B). The Caco-2 cell monolayers were incubated for 2 h at 37° C. Fractions were collected from receivers (if apical to basal permeability) or inserts (if basal to apical permeability), and concentrations were assessed by UPLC/MS (Waters; Milford, MA). All compounds were tested in triplicates. The A→B (or B→A) apparent permeability coefficients (Papp) of each compound were calculated using the equation, Papp=dQ/dt×1/AC0, where dQ/dt equals the flux of a drug across the monolayer, A equals the total insert well surface area, and C0 is the initial concentration of substrate in the donor compartment. The efflux ratio was determined by dividing the Papp in the B-A direction by the Papp in the A-B direction.
(Caco-2 cells form a polarised layer with tight junctions and transporters.)

Data set [2] addresses interaction between GST-MAGEA11 MHD and FAM-PCF11_4 peptide (MAGE-A11:PCF11) (Homo sapiens (Human), UniProt P43364). The experiment in a line: TR-FRET dose response competition assay for disruption of MAGE-A11:PCF11 binding. To be noted: read-out: IC50 by TR-FRET for disrupting MAGE-A11:PCF11 interaction. In outline: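 Competition TR-FRET at room temperature in 50 mM Tris pH 7.5, 20 mM MgCl2, 0.1 mg/ml BSA, 1 mM DTT: final 5 nM GST-MAGEA11 MHD, 5 nM Tb-anti-GST, 200 nM FAM-PCF11_4, 90 min. Ratio 520/490 nm converted to % inhibition; IC50 from sigmoidal fit.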

For data set [3], the system named is MAGE-A11-knockout DAOY cells or those reconstituted with MAGE-A11. The experiment in a line: Cell viability alamarBlue assay, DAOY cells. The data set is classed as cell-based. As to conditions: MAGE-A11 expressing DAOY cells versus MAGE-A11-negative cells, 24 hours, listed as SJ521054. The procedure:
Cell viability Assay. To assess cell viability after SJ521054 treatment, 1×10^4 cells/ml were treated with SJ521054 (0-40 μM) and incubated for 24 hours prior to changing the media and adding alamarBlue (Thermo Fisher Scientific) and incubating for 4 hours at 37° C. Plates were read by measuring the fluorescence with excitation wavelength at 540 nm and emission wavelength at 590 nm on an Enspire plate reader.

Chain of interaction between GST-MAGEA11 MHD and FAM-PCF11_4 peptide (MAGE-A11:PCF11) (P43364 218-429): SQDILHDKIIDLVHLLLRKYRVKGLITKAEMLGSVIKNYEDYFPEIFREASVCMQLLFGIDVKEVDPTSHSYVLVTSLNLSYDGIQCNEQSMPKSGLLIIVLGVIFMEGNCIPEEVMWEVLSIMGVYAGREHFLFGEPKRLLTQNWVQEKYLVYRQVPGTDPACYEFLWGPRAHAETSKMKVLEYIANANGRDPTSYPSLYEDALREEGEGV

For `FC(F)(F)c1ccc2c(NCCCNCc3ccc4[nH]ccc4c3)ccnc2c1` [SJ000521054-02, N^1-((1H-Indol-5-yl)methyl)-N^3-(7-(trifluoromethyl)quinolin-4-yl)propane-1,3-diamine], the Papp at 2 h, 10 μmol/l in data set [1] (Caco-2, pH 7.4, apical to basolateral, read-out: Caco-2 permeability, A/B) came out at 11.5 ×10⁻⁶ cm/s; in data set [1] (Caco-2, pH 7.4, basolateral to apical, read-out: Caco-2 permeability, B/A) it was 14.2 ×10⁻⁶ cm/s. Moreover, the concentration for half-maximal inhibition (IC50) in data set [2] came out at 400 nM. For the same molecule, in data set [3], the cell viability entry is “reduces viability of MAGE-A11 expressing DAOY cancer cells; also recorded: decreased the viability”.

The values above are taken from patent publication US20240246941A1, “SUBSTITUTED 4-(3-AMINOPROP-1-YL)AMINOQUINOLINE ANALOGS AS MODULATORS OF MELANOMA-ASSOCIATED ANTIGEN 11 UBIQUITIN LIGASE” (ST. JUDE CHILDREN'S RESEARCH HOSPITAL, INC., priority 2020, published 2024).
